Experimental data: US7056947B2, “Aza-peptide epoxides” (Georgia Tech Research Corp., priority 2002, dated 2006)

Columns and labels:
Type in all cases: biochemical
papain = biological target: T1, papain (Carica papaya, UniProt P00784); assay: Inhibition of papain, incubation method; settings: second-order rate constant, NI = no inhibition; for kinact/KI: pH 7.5, read-out: kobs/[I] papain
T1 sequence (P00784 134-345): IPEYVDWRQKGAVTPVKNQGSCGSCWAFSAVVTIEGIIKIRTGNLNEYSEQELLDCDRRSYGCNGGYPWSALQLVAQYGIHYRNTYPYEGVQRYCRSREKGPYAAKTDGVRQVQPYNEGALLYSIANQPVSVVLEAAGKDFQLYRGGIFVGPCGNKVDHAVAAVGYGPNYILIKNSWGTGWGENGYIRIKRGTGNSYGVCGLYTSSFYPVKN
Method: (§1) The release of 7-amino-4-methylcoumarin was monitored (λex=360 nm, λem=465 nm) using a Tecan Spectra Fluor microplate reader. Pseudo first-order inactivation rate constants were obtained from plots of In vt/vo versus time.
The incubation method was also used for papain. The inhibition incubation buffer for papain was 50 mM Hepes buffer at pH 7.5, containing 2.5 mM DTT and 2.5 mM EDTA. The assay used the substrate Z-Phe-Arg-pNA (53.7 μM) in the same buffer. The approximate concentration of papain added to the incubation buffer was 0.29 mg/mL. The release of p-nitroanilide was monitored at 405 nm with a Molecular Devices Thermomax microplate reader.

cathepsin B = cathepsin B (Homo sapiens, UniProt P07858); assay: Inhibition of cathepsin B, incubation method; settings: pH 6; second-order rate constant; NI = no inhibition; read-out: kobs/[I] cathepsin B
Description: as §1

caspase-1 = biological target: T2, caspase-1 (Homo sapiens, UniProt P29466, D381E); assay: Caspase-1 progress curve assay; settings: D381E variant, substrate Ac-YVAD-AMC, 30° C.
T2 construct: His tag (N); made in house; host or cells: E. coli
T2 sequence (P29466 120-297 limits assumed): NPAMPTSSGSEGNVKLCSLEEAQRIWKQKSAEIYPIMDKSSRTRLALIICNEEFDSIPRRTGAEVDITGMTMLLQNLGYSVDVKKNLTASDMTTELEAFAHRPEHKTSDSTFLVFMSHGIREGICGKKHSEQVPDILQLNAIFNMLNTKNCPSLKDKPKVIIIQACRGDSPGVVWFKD
T2 sequence (P29466 317-404 D381E limits assumed): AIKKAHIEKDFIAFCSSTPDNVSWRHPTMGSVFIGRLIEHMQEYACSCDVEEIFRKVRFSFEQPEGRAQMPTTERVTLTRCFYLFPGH
Description: Caspase-1. The preparation of the autolytically stable caspase-1 variant used in these studies has been described previously. Briefly, the variant contains a mutation (D381E) which renders it resistant to autolytic inactivation, but has no detectable affect on enzyme activity as compared to the naturally occurring enzyme. The enzyme variant was expressed in E. coli, purified first by immobilized metal chromatography via the N-terminal N-His tag, treated with excess oxidized glutathione to stabilize the reactive thiolate, and then re-purified by size-exclusion chromatography.
Inhibition data was measured using the progress curve assay method. Serial dilutions of each compound were prepared using an initial 8-fold dilution of a DMSO stock into HGE (100 mM HEPES,20% glycerol v/v, 0.5 mM EDTA), followed by seven serial two-fold dilutions into HGE and 12.5% DMSO, thus maintaining constant DMSO through the dilution series. Ten μL of diluted stocks or of vehicle (HGE and 12.5% DMSO) were placed in triplicate onto a 96-well microtiter plate, allowing several compounds to be tested on each plate. The plate was covered to minimize evaporation, and the plate was pre-warmed to 30° C. for 20 minutes. Enzyme was diluted into 10.0 mL of assay buffer (HGE, 5 mM DTT, plus 15 μM Ac-YVAD-AMC, 2 nM approximate final enzyme concentration), and this activated reaction mixture was added to the plate at 90 μL/well. Progress of substrate hydrolysis was monitored for 900 s in a LabSystems (Needham, Mass.) Fluoroskan Ascent fluorescent plate-reader using 385 and 460 nm excitation and emission filters, respectively, and a photomultiplier gain setting of 10. Triplicate curves were averaged and fit by nonlinear regression to the equation for irreversible inactivation shown below.
[formula] where F0 was routinely fixed to zero, since fluorescence values were always adjusted to an origin of 0. The second order rate constant kon (M^−1s^−1) was obtained from the slopes by linear regression, and errors represent the standard deviation of the regression slope.

caspase-3 = biological target: T3, caspase-3 (Homo sapiens, UniProt P42574); assay: Caspase-3 progress curve assay; settings: substrate Z-DEVD-AFC; NI = no inhibition
T3 construct: made in house; host or cells: E. coli
T3 sequence (P42574 29-175 limits assumed): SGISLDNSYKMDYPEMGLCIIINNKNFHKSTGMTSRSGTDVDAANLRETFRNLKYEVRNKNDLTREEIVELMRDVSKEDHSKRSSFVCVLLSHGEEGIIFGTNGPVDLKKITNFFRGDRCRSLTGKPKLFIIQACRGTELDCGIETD
T3 sequence (P42574 176-277 limits assumed): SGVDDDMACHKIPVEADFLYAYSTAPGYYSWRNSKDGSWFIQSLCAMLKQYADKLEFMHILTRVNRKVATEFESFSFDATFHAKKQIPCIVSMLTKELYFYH
Method: Caspase-3, -6, and -8. Caspase-3, -6 and -8 were expressed in E. coli and purified according to methods previously described by Stennicke and Salvesen. Assays using the fluorogenic substrate Z-DEVD-AFC (λex=400 nm, λem=505 nm) were carried out on a Molecular Devices fMax fluorescence microplate reader. Inhibition rates and equilibria were determined by the progress curve method. The standard 100 μL reaction was started by adding enzyme to a mixture of substrate (final concentration of Z-DEVD-AFC 100 μM) and various amounts of inhibitor in buffer (50 mM Hepes, 100 mM NaCl, 0.1% (w/v) CHAPS, sucrose 10% (w/v), and 10 mM DTT, at pH 7.4). The caspases were pre-activated for 10 min at 37° C. in the presence of 10 mM DTT.

Compound | k2 caspase-1 (caspase-1) | k2 caspase-3 (caspase-3) | further results
CCC(NC(=O)OC(C)(C)C)C(=O)NN(CCc1ccccc1)C(=O)[C@@H]1O[C@H]1CCc1ccccc1 (relative stereo) [Boc-Abu-AHph-trans-EP-CH2CH2Ph, trans-3-(N^2-(N-tert-Butoxycarbonyl-α-aminobutanoyl)-N^1-phenylethylhydrazinocarbonyl)-2-(2-phenylethyl)oxirane] | – | – | kobs/[I] papain (papain): 0.2 M⁻¹ s⁻¹
O=C(OCc1ccccc1)N(NCc1ccccc1)C(=O)[C@@H]1O[C@H]1CCc1ccccc1 (relative stereo) [Cbz-APhe-trans-EP-CH2CH2Ph, trans-3-(N^2-Benzyl-N^1-benzyloxycarbonylhydrazinocarbonyl)-2-(2-phenylethyl)oxirane] | – | – | kinact/KI (papain): 0.92 M⁻¹ s⁻¹
C[C@H](NC(=O)OCc1ccccc1)C(=O)N[C@@H](C)C(=O)NN(CC(N)=O)C(=O)[C@@H]1O[C@H]1C(=O)OCc1ccccc1 (relative stereo) [Cbz-Ala-Ala-AAsn-trans-EP-COOCH2Ph, trans-3-(N^2-(N-Benzyloxycarbonylalanylalanyl)-N^1-carbamoylmethylhydrazinocarbonyl)oxirane-2-carboxylic Acid Benzyl Ester] | – | – | kinact/KI (cathepsin B): 1.09 M⁻¹ s⁻¹
CCOC(=O)[C@@H]1O[C@H]1C(=O)N(CC(N)=O)NC(=O)[C@H](C)NC(=O)[C@H](C)NC(=O)OCc1ccccc1 (relative stereo) [Cbz-Ala-Ala-AAsn-trans-EP-COOEt, trans-3-(N^2-(N-Benzyloxycarbonylalanylalanyl)-N^1-carbamoylmethylhydrazinocarbonyl)oxirane-2-carboxylic Acid Ethyl Ester] | – | – | kinact/KI (cathepsin B): 1.27 M⁻¹ s⁻¹
CC(C)CN(NC(=O)[C@H](Cc1ccccc1)NC(=O)OCc1ccccc1)C(=O)[C@@H]1O[C@H]1CCc1ccccc1 (relative stereo) [Cbz-Phe-ALeu-trans-EP-CH2CH2Ph] | – | – | kobs/[I] papain (papain): 0.7 M⁻¹ s⁻¹
O=C(N[C@@H](Cc1ccccc1)C(=O)NN(Cc1ccccc1)C(=O)[C@@H]1O[C@H]1CCc1ccccc1)OCc1ccccc1 (relative stereo) [Cbz-Phe-APhe-trans-EP-CH2CH2Ph, trans-3-(N^2-(N-3-Benzyloxyphenylalanyl)-N^1-benzylhydrazinocarbonyl)-2-(2-phenylethyl)oxirane] | – | – | kobs/[I] papain (papain): 0.5 M⁻¹ s⁻¹
CCOC(=O)[C@@H]1O[C@H]1C(=O)N(CC(=O)O)NC(=O)[C@@H](NC(=O)[C@H](CCC(=O)O)NC(=O)[C@H](CC(C)C)NC(=O)OCc1ccccc1)[C@@H](C)O [26c (R,R), (2R,3R)-3-(N^2-(N-Benzyloxycarbonylleucylglutamylthreonyl)-N^1-carboxymethylhydrazinocarbonyl)oxirane-2-carboxylic Acid Ethyl Ester] | 19570 M⁻¹ s⁻¹ | 3250 ± 160 M⁻¹ s⁻¹ | kinact/KI (papain): 0.24 M⁻¹ s⁻¹
CCOC(=O)[C@H]1O[C@@H]1C(=O)N(CC(=O)O)NC(=O)[C@@H](NC(=O)[C@H](CCC(=O)O)NC(=O)[C@H](CC(C)C)NC(=O)OCc1ccccc1)[C@@H](C)O [26c (S,S), (2S,3S)-3-(N^2-(N-Benzyloxycarbonylleucylglutamylthreonyl)-N^1-carboxymethylhydrazinocarbonyl)oxirane-2-carboxylic Acid Ethyl Ester] | 25730 M⁻¹ s⁻¹ | 3210 ± 315 M⁻¹ s⁻¹ | kinact/KI (papain): 0.47 M⁻¹ s⁻¹
CCOC(=O)[C@H]1O[C@@H]1C(=O)N(CC(=O)O)NC(=O)[C@@H](NC(=O)[C@H](CCC(=O)O)NC(=O)[C@@H](NC(=O)OCc1ccccc1)[C@@H](C)CC)[C@@H](C)O [27c (S,S), (2S,3S)-3-(N^2-(N-Benzyloxycarbonylisoleucylglutamylthreonyl)-N^1-carboxymethylhydrazinocarbonyl)oxirane-2-carboxylic Acid Ethyl Ester] | 12372 M⁻¹ s⁻¹ | 4080 ± 360 M⁻¹ s⁻¹ | –
CC[C@H](C)[C@H](NC(=O)OCc1ccccc1)C(=O)N[C@@H](CCC(=O)O)C(=O)N[C@H](C(=O)NN(CC(=O)O)C(=O)[C@@H]1O[C@H]1C(=O)OCc1ccccc1)[C@@H](C)O [27d (R,R), (2R,3R)-3-(N^2-(N-Benzyloxycarbonylisoleucylglutamylthreonyl)-N^1-carboxymethylhydrazinocarbonyl)oxirane-2-carboxylic Acid Benzyl Ester] | 13000 ± 980 M⁻¹ s⁻¹ | 3115 ± 125 M⁻¹ s⁻¹ | –
CC[C@H](C)[C@H](NC(=O)OCc1ccccc1)C(=O)N[C@@H](CCC(=O)O)C(=O)N[C@H](C(=O)NN(CC(=O)O)C(=O)[C@H]1O[C@@H]1C(=O)OCc1ccccc1)[C@@H](C)O [27d (S,S), (2S,3S)-3-(N^1-(N-Benzyloxycarbonylisoleucylglutamylthreonyl)-N^1-carboxymethylhydrazinocarbonyl)oxirane-2-carboxylic Acid Benzyl Ester] | 45788 M⁻¹ s⁻¹ | 9545 ± 960 M⁻¹ s⁻¹ | –
CC[C@H](C)[C@H](NC(=O)OCc1ccccc1)C(=O)N[C@@H](CCC(=O)O)C(=O)N[C@H](C(=O)NN(CC(=O)O)C(=O)[C@@H]1O[C@H]1C(=O)NCc1ccccc1)[C@@H](C)O [27g, (2R,3R)-2-(2-Benzylcarbamoyl)-3-(N^2-(N-benzyloxycarbonylisoleucylglutamylthreonyl)-N^1-carboxymethylhydrazinocarbonyl)oxirane] | 18140 ± 4085 M⁻¹ s⁻¹ | 6475 ± 240 M⁻¹ s⁻¹ | –
CCCCC(NC(=O)OC(C)(C)C)C(=O)NN(CCc1ccccc1)C(=O)C1OC1CCc1ccccc1 (stereo not drawn) [Boc-Nle-AHph-trans-EP-CH2CH2Ph, Boc-Nle-AHph-(trans)-EP-CH2CH2Ph] | – | – | kobs/[I] papain (papain): 0.5 M⁻¹ s⁻¹
CCOC(=O)[C@@H]1O[C@H]1C(=O)N(CC(C)C)NC(=O)[C@H](CC(C)C)NC(=O)[C@H](CC(C)C)NC(=O)OCc1ccccc1 [Cbz-Leu-Leu-ALeu-(2R, 3R)-EP-COOEt, (2R,3R)-3-(N^2-(N-Benzyloxycarbonylleucylleucyl)-N^1-isobutylhydrazinocarbonyl)oxirane-2-carboxylic Acid Ethyl Ester] | – | – | kinact/KI (papain): 20.6 M⁻¹ s⁻¹
(2R,3R)-2-(1-Amido-phenethylcarbamoyl)-3-(N^2-(N-benzyloxycarbonylaspartylglutamylvalyl)-N^1-carboxymethylhydrazinocarbonyl)oxirane [24l] | 1040 ± 455 M⁻¹ s⁻¹ | 470 ± 77 M⁻¹ s⁻¹ | –
